Data set [1] is described as follows: Compound stability in human liver microsomes. The format is in vitro ADME. The settings on record: for half-life at 5 μM: human liver microsomes 0.5 mg protein/mL, compound 5 μM, NADPH 1.0 mM, 37° C.; for CLint scaled at 5 μM: human liver microsomes, in vivo CLint extrapolated.
Data set [2] is described as follows: Compound stability in rat liver microsomes. The format is in vitro ADME. The following applies: pH 7.4; for half-life at 5 μM: rat liver microsomes 0.5 mg protein/mL, compound 5 μM, NADPH 1.0 mM, 37° C.; for CLint scaled at 5 μM: rat liver microsomes, in vivo CLint extrapolated.
Data set [3] is described as follows: Pharmacokinetics after intravenous and oral administration in rats. The format is in vivo, rat. The following applies: for clearance (CL) / AUC(0-t) / half-life / Vd: iv dosing, dose 1 mg/kg; for bioavailability / AUC(0-t) / half-life / Vd: rat, plasma; for bioavailability: iv dose 1 mg/kg, oral dose generally 5 or 10 mg/kg; for Vd: read-out: Vss.
A further data set has as its target PI3K (p110δ/p85α) (h) (Homo sapiens (Human), UniProt O00329). Nature of the data set: PI3K (p110δ/p85α) (h) non-radioactive HTRF kinase assay. The format is biochemical.

Each structure is given as a SMILES string.

Usually half-life stands for how long it takes for the measured level to halve. Lower therefore signals fast loss. The term CLint scaled denotes a measure of how fast metabolising enzymes remove a compound, apart from limits set by blood flow. For orientation: bioavailability means dose-corrected exposure relative to a reference, in per cent. A high value points to much systemic uptake. As usually defined, the AUC(0-t) is exposure summed from dosing to a finite time, without extrapolation to infinity. A higher AUC(0-t) goes with more exposure. As a reminder, the IC50 is the concentration needed to halve the response being measured.

PI3K (p110δ/p85α) (h), sequence (O00329 whole entry): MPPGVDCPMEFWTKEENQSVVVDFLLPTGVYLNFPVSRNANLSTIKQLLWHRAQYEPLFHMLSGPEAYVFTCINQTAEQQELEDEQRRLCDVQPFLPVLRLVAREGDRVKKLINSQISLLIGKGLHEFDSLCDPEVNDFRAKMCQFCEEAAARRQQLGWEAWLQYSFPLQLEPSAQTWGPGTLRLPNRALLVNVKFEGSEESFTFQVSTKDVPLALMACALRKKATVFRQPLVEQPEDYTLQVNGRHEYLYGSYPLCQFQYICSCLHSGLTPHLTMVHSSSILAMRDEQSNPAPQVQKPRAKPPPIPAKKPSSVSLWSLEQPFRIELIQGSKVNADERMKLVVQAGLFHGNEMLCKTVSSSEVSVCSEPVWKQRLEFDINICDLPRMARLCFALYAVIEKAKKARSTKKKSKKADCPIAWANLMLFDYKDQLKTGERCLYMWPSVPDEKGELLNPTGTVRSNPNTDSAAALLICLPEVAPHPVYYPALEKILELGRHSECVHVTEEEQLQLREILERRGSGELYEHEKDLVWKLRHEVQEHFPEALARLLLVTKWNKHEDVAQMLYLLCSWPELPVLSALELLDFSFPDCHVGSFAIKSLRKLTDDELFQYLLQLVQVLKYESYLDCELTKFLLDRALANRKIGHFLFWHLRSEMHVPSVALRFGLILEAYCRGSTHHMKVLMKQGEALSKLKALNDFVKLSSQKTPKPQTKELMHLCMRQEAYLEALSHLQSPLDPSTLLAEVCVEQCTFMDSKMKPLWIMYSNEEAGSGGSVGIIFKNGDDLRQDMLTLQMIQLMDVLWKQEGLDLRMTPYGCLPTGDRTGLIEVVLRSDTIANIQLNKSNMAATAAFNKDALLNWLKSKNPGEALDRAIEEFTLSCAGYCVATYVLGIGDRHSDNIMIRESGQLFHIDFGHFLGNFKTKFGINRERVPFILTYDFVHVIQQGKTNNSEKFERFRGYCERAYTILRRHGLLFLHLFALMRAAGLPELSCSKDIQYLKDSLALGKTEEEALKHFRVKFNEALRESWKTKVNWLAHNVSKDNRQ
PI3K (p110δ/p85α) (h), sequence (P27986 whole entry partner): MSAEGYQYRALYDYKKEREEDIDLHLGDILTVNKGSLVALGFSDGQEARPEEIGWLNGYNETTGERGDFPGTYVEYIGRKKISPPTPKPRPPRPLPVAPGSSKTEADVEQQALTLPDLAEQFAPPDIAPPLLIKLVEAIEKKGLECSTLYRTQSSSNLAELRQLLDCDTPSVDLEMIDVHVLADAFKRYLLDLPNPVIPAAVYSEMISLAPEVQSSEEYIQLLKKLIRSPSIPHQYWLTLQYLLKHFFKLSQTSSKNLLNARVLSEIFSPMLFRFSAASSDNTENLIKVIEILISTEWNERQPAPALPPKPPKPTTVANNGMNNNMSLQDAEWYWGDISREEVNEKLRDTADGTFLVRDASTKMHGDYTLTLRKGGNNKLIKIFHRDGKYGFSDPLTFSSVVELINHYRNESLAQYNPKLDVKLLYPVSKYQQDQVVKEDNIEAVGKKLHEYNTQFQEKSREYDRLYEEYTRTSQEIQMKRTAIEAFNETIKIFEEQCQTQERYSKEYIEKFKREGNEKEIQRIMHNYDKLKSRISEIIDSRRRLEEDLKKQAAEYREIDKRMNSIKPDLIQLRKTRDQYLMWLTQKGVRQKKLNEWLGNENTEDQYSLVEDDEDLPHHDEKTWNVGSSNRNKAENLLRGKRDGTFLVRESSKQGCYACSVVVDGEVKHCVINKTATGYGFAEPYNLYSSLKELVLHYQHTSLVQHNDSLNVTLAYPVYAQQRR

For `CC[C@H](Nc1ncnc(N)c1-c1noc(C)n1)c1nc2cccc(Cl)c2c(=O)n1C1CC1` [Ex. 12, (S)-2-(1-((6-amino-5-(5-methyl-1,2,4-oxadiazol-3-yl)pyrimidin-4-yl)amino)-propyl)-5-chloro-3-cyclopropylquinazolin-4(3H)-one], in data set [1], the half-life at 5 μM is 20.6 min and the CLint scaled at 5 μM was 84.6 mL/min/kg. Besides, in data set [2], the half-life at 5 μM turned out to be 31 min and the CLint scaled at 5 μM was 80.2 mL/min/kg. Further, in data set [3], the “clearance (CL)” value amounted to 31.8 mL/min/kg, the bioavailability is 48.9%, the AUC(0-t) is 518 ng·h/mL and the half-life was 76.8 min. Moreover, in data set [3], the Vd came out at 3.14 L/kg. At PI3K (p110δ/p85α) (h), the IC50 is 48 nM.

In the case of `CC[C@H](Nc1ncnc(N)c1-c1nc(C)no1)c1nc2cccc(C)c2c(=O)n1-c1ccccc1C` [Ex. 27, (S)-2-(1-((6-amino-5-(3-methyl-1,2,4-oxadiazol-5-yl)pyrimidin-4-yl)amino)-propyl)-5-methyl-3-(o-tolyl)quinazolin-4(3H)-one], in data set [1], the half-life at 5 μM came out at 14.9 min and the CLint scaled at 5 μM was 167 mL/min/kg. Moreover, in data set [2], the half-life at 5 μM stood at 16.3 min and the CLint scaled at 5 μM was 152 mL/min/kg. In data set [3], the “clearance (CL)” value was 61.7 mL/min/kg, the bioavailability is 49.8%, the AUC(0-t) is 263 ng·h/mL and the half-life was 111 min. In data set [3], the Vd is 6.11 L/kg. Further, the IC50 on PI3K (p110δ/p85α) (h) was 13 nM.

On to `CC[C@H](Nc1ncnc(N)c1-c1nnc(C)o1)c1nc2cccc(F)c2c(=O)n1C1CC1` [Ex. 25, (S)-2-(1-((6-amino-5-(5-methyl-1,3,4-oxadiazol-2-yl)pyrimidin-4-yl)amino)-propyl)-3-cyclopropyl-5-fluoroquinazolin-4(3H)-one], for which, in data set [1], the half-life at 5 μM is 150 min and the CLint scaled at 5 μM was 16.6 mL/min/kg. Besides, in data set [2], the half-life at 5 μM was 49.9 min and the CLint scaled at 5 μM is 49.8 mL/min/kg. In data set [3], the “clearance (CL)” value turned out to be 75.7 mL/min/kg, the bioavailability turned out to be 62.3%, the AUC(0-t) was determined as 223 ng·h/mL and the half-life is 48.6 min. The Vd in data set [3] is 3.77 L/kg. On PI3K (p110δ/p85α) (h), the IC50 was 298 nM.

`CC[C@H](Nc1ncnc(N)c1-c1nnc(C)o1)c1nc2cccc(C)c2c(=O)n1-c1ccccc1C` [Ex. 31, (S)-2-(1-((6-amino-5-(5-methyl-1,3,4-oxadiazol-2-yl)pyrimidin-4-yl)amino)propyl)-5-methyl-3-(o-tolyl)quinazolin-4(3H)-one]: in data set [1], the half-life at 5 μM came to 7.56 min and the CLint scaled at 5 μM is 328 mL/min/kg. For the same compound, in data set [2], the half-life at 5 μM came out at 7.27 min and the CLint scaled at 5 μM was 342 mL/min/kg. In data set [3], the “clearance (CL)” value was found to be 64.8 mL/min/kg, the bioavailability came out at 16.2%, the AUC(0-t) is 260 ng·h/mL and the half-life is 42 min. In data set [3], the Vd is 3.42 L/kg. Moreover, at PI3K (p110δ/p85α) (h), the IC50 turned out to be 18 nM.

For `Cc1nc(-c2c(N)ncnc2N[C@@H](C)c2nc3cccc(Cl)c3c(=O)n2C2CC2)no1` [Ex. 33, (S)-2-(1-((6-amino-5-(5-methyl-1,2,4-oxadiazol-3-yl)pyrimidin-4-yl)amino)-ethyl)-5-chloro-3-cyclopropylquinazolin-4(3H)-one], in data set [1], the half-life at 5 μM came to 11.9 min and the CLint scaled at 5 μM was 146 mL/min/kg. For the same compound, in data set [2], the half-life at 5 μM came to 8.68 min and the CLint scaled at 5 μM was 286 mL/min/kg. In addition, in data set [3], the “clearance (CL)” value came to 65.5 mL/min/kg, the bioavailability was 5.59%, the AUC(0-t) worked out at 241 ng·h/mL and the half-life is 432 min. Moreover, the Vd in data set [3] is 14.3 L/kg. Moreover, on PI3K (p110δ/p85α) (h), the IC50 was determined as 67 nM.

Turning to `CC(C)c1nc(-c2c(N)ncnc2N[C@@H](C)c2nc3cccc(Cl)c3c(=O)n2C2CC2)no1` [Ex. 59, (S)-2-(1-((6-amino-5-(5-isopropyl-1,2,4-oxadiazol-3-yl)pyrimidin-4-yl)amino)ethyl)-5-chloro-3-cyclopropylquinazolin-4(3H)-one], in data set [1], the half-life at 5 μM came to 6.66 min and the CLint scaled at 5 μM is 261 mL/min/kg. For the same compound, in data set [2], the half-life at 5 μM turned out to be 3.36 min and the CLint scaled at 5 μM was 739 mL/min/kg. Further, in data set [3], the “clearance (CL)” value was determined as 73.7 mL/min/kg, the bioavailability is 3.27%, the AUC(0-t) came to 229 ng·h/mL and the half-life is 115 min. In addition, the Vd in data set [3] came to 7.32 L/kg. On PI3K (p110δ/p85α) (h), the IC50 is 20 nM.

Consider `CC(C)c1noc(-c2c(N)ncnc2N[C@@H](C)c2nc3cccc(Cl)c3c(=O)n2C2CC2)n1` [Ex. 57, (S)-2-(1-((6-amino-5-(3-isopropyl-1,2,4-oxadiazol-5-yl)pyrimidin-4-yl)amino)-ethyl)-5-chloro-3-cyclopropylquinazolin-4(3H)-one], for which, in data set [1], the half-life at 5 μM stood at 18.2 min and the CLint scaled at 5 μM was 95.2 mL/min/kg. In data set [2], the half-life at 5 μM was determined as 10.4 min and the intrinsic metabolic clearance (CLint scaled) at 5 μM is 239 mL/min/kg. Also, in data set [3], the “clearance (CL)” value turned out to be 83 mL/min/kg, the bioavailability was determined as 12.1%, the AUC(0-t) stood at 199 ng·h/mL and the half-life is 59.4 min. In data set [3], the Vd was found to be 5.84 L/kg. Moreover, on PI3K (p110δ/p85α) (h), the IC50 amounted to 6 nM.

For `CC[C@H](Nc1ncnc(N)c1-c1nc(C)no1)c1nc2cccc(C)c2c(=O)n1C1CC1` [Ex. 21, (S)-2-(1-((6-amino-5-(3-methyl-1,2,4-oxadiazol-5-yl)pyrimidin-4-yl)amino)-propyl)-3-cyclopropyl-5-methylquinazolin-4(3H)-one], in data set [1], the half-life at 5 μM was determined as 25.4 min and the CLint scaled at 5 μM was 97.7 mL/min/kg. In data set [2], the half-life at 5 μM worked out at 25 min and the CLint scaled at 5 μM was 99.3 mL/min/kg. Besides, in data set [3], the “clearance (CL)” value was 55.8 mL/min/kg, the bioavailability was 57.5%, the AUC(0-t) was 292 ng·h/mL and the half-life was 96.6 min. Further, the Vd in data set [3] turned out to be 6.24 L/kg. On PI3K (p110δ/p85α) (h), the IC50 was 19 nM.

As for `CC[C@H](Nc1ncnc(N)c1-c1nc(C)no1)c1nc2cccc(C)c2c(=O)n1-c1ccccc1` [Ex. 37, (S)-2-(1-((6-amino-5-(3-methyl-1,2,4-oxadiazol-5-yl)pyrimidin-4-yl)amino)-propyl)-5-methyl-3-phenylquinazolin-4(3H)-one], in data set [1], the half-life at 5 μM amounted to 5.3 min and the CLint scaled at 5 μM is 328 mL/min/kg. Moreover, in data set [2], the half-life at 5 μM was determined as 7.2 min and the CLint scaled at 5 μM was 345 mL/min/kg. Moreover, in data set [3], the “clearance (CL)” value turned out to be 67.5 mL/min/kg, the bioavailability amounted to 24.6%, the AUC(0-t) came to 246 ng·h/mL and the half-life was 80.4 min. Further, in data set [3], the Vd is 4.9 L/kg. Besides, at PI3K (p110δ/p85α) (h), the IC50 stood at 6 nM.

For `CC[C@H](Nc1ncnc(N)c1-c1ncn(C)n1)c1nc2cccc(Cl)c2c(=O)n1C1CC1` [Ex. 53, (S)-2-(1-((6-amino-5-(1-methyl-1H-1,2,4-triazol-3-yl)pyrimidin-4-yl)amino)-propyl)-5-chloro-3-cyclopropylquinazolin-4(3H)-one], in data set [1], the half-life at 5 μM is 28 min and the CLint scaled at 5 μM was 62.1 mL/min/kg. In addition, in data set [2], the half-life at 5 μM was found to be 34.1 min and the CLint scaled at 5 μM was 72.9 mL/min/kg. Further, in data set [3], the “clearance (CL)” value turned out to be 38.2 mL/min/kg, the bioavailability was 97.3%, the exposure AUC(0-t) was 429 ng·h/mL and the half-life was 97.2 min. Also, the Vd in data set [3] was found to be 3.88 L/kg. In addition, the IC50 on PI3K (p110δ/p85α) (h) was 239 nM.

As for `C[C@H](Nc1ncnc(N)c1-c1ncn(C)n1)c1nc2cccc(Cl)c2c(=O)n1C1CC1` [Ex. 44, (S)-2-(1-((6-amino-5-(1-methyl-1H-1,2,4-triazol-3-yl)pyrimidin-4-yl)amino)-ethyl)-5-chloro-3-cyclopropylquinazolin-4(3H)-one], in data set [1], the half-life at 5 μM came to 13.6 min and the CLint scaled at 5 μM is 128 mL/min/kg. In addition, in data set [2], the half-life at 5 μM was 13 min and the CLint scaled at 5 μM was 191 mL/min/kg. Moreover, in data set [3], the “clearance (CL)” value is 73.7 mL/min/kg, the bioavailability was determined as 14%, the AUC(0-t) is 231 ng·h/mL and the half-life is 34.2 min. The Vd in data set [3] was 2.51 L/kg. Further, at PI3K (p110δ/p85α) (h), the IC50 was found to be 358 nM.

On to `CC[C@@H](Nc1ncnc(N)c1-c1nc(C)no1)c1nc2cccc(Cl)c2c(=O)n1C1CC1` [Ex. 19, (R)-2-(1-((6-amino-5-(3-methyl-1,2,4-oxadiazol-5-yl)pyrimidin-4-yl)amino)propyl)-5-chloro-3-cyclopropylquinazolin-4(3H)-one], for which, in data set [1], the half-life at 5 μM worked out at 52.4 min and the CLint scaled at 5 μM was 47.4 mL/min/kg. Moreover, in data set [2], the half-life at 5 μM worked out at 19.7 min and the CLint scaled at 5 μM is 126 mL/min/kg. Further, in data set [3], the “clearance (CL)” value worked out at 127 mL/min/kg, the bioavailability stood at 5.49%, the AUC(0-t) was found to be 132 ng·h/mL and the half-life is 51.6 min. For the same compound, the Vd in data set [3] is 6.98 L/kg. The IC50 on PI3K (p110δ/p85α) (h) is more than 3000 nM.

On to `CC[C@H](Nc1ncnc(N)c1-c1nc(C)no1)c1nc2cccc(F)c2c(=O)n1C1CC1` [Ex. 23, (S)-2-(1-((6-amino-5-(3-methyl-1,2,4-oxadiazol-5-yl)pyrimidin-4-yl)amino)-propyl)-3-cyclopropyl-5-fluoroquinazolin-4(3H)-one], for which, in data set [1], the half-life at 5 μM is 44.3 min and the intrinsic metabolic clearance (CLint scaled) at 5 μM is 56 mL/min/kg. In data set [2], the half-life at 5 μM was 56.9 min and the CLint scaled at 5 μM is 43.7 mL/min/kg. Further, in data set [3], the “clearance (CL)” value was 71.3 mL/min/kg, the bioavailability stood at 34.1%, the AUC(0-t) turned out to be 237 ng·h/mL and the half-life was 56.4 min. Also, the Vd in data set [3] came out at 5.02 L/kg. The IC50 at PI3K (p110δ/p85α) (h) came to 52 nM.
